The text below walks through data of ChEMBL document CHEMBL5126614 (ACS Med Chem Lett, 2022).

As usually defined, the EC50 is the concentration needed to bring the measured effect to its halfway point.

The species named for experiment [1] is Macaca mulatta. Put plainly: Selectivity ratio of EC50 for rhesus monkey GCGR to EC50 for rhesus monkey GLP1R.
Experiment [2] deals with Glucagon receptor (Homo sapiens, UniProt P47871). The experiment can be described thus: Agonist activity at human GCGR expressed in frozen cells assessed as increase in cAMP production measured after 1 hr by HitHunter luminescence assay. Type of experiment: functional, cell-based.
Chain of Glucagon receptor (P47871 whole entry): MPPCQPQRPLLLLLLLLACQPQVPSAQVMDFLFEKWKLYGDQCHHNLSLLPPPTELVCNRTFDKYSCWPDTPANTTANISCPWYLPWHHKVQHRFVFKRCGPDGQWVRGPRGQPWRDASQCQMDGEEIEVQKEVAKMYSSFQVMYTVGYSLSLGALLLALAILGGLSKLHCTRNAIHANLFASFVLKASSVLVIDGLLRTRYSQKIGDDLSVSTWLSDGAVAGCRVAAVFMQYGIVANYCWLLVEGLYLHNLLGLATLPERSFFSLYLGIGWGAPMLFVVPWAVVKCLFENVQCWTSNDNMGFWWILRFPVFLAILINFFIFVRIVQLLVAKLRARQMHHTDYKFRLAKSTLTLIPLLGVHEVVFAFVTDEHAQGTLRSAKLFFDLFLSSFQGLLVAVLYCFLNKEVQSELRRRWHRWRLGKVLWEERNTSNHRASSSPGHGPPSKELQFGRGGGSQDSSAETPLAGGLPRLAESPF
The species named for experiment [3] is Homo sapiens. Put plainly: Selectivity ratio of EC50 for human GCGR expressed in frozen cells to EC50 for human GLP1R expressed in frozen cells. Type of experiment: cell-based.
A short description of experiment [4]: Agonist activity at rhesus monkey GCGR. Set-up: species or system Macaca mulatta.
Experiment [5] is described as follows: Agonist activity at rhesus monkey GLP1R. Set-up: species or system Macaca mulatta.
Experiment [6] deals with Glucagon-like peptide 1 receptor (Homo sapiens, UniProt P43220). The experiment can be described thus: Agonist activity at human GLP1R expressed in frozen cells assessed as increase in cAMP production measured after 1 hr by HitHunter luminescence assay. Type of experiment: functional, cell-based. For orientation: cAMP levels reflect the balance of adenylyl cyclase and phosphodiesterase activity.
Chain of Glucagon-like peptide 1 receptor (P43220 whole entry): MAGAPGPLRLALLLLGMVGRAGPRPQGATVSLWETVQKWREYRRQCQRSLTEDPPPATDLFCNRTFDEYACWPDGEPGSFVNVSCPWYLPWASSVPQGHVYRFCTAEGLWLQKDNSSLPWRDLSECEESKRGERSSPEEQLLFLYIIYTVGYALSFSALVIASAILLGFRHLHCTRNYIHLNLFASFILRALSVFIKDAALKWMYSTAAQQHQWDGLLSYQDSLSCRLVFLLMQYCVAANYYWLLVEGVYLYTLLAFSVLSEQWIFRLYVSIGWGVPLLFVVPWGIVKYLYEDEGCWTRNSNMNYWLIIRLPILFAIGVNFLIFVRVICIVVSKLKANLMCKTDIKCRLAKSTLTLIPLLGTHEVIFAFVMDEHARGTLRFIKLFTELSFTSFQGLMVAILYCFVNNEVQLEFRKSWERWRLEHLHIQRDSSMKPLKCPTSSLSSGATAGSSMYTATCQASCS

Regarding `CCCCCCCCCCCCCCCC(=O)N[C@@H](CCC(=O)N[C@@H](CCC(=O)NCCCC[C@H](NC(=O)[C@H](CC(=O)O)NC(=O)[C@H](CO)NC(=O)[C@@H](NC(=O)[C@H](Cc1ccccc1)NC(=O)[C@@H](NC(=O)CNC(=O)[C@H](CCC(N)=O)NC(=O)[C@@H](CO)NC(=O)[C@@H](N)Cc1cnc[nH]1)[C@@H](C)O)[C@@H](C)O)C(=O)N[C@@H](CO)C(=O)N[C@@H](CCCCN)C(=O)N[C@@H](Cc1ccc(O)cc1)C(=O)N[C@@H](CC(C)C)C(=O)N[C@@H](CC(=O)O)C(=O)N[C@H](C(=O)N[C@@H](CCCNC(=N)N)C(=O)N[C@@H](C)C(=O)N[C@@H](C)C(=O)N[C@@H](CCC(N)=O)C(=O)N[C@@H](CC(=O)O)C(=O)N[C@@H](Cc1ccccc1)C(=O)N[C@H](C(=O)N[C@@H](CCC(N)=O)C(=O)N[C@@H](Cc1c[nH]c2ccccc12)C(=O)N[C@@H](CC(C)C)C(=O)N[C@@H](CC(C)C)C(=O)N[C@@H](CC(=O)O)C(=O)N[C@H](C(N)=O)[C@@H](C)O)C(C)C)C(C)C)C(=O)O)C(=O)O`, the values for the Ratio EC50 in experiment [1] and in experiment [3] were 0.9 and 0.5, respectively. Also, the EC50 in experiment [2] was determined as 0.062 nM; in experiment [4], 0.018 nM; in experiment [5], 0.021 nM.

In the case of GLUCAGON, the EC50 in experiment [4] is 0.003 nM; in experiment [5], 0.038 nM.

In the case of `CCCCCCCCCCCCCCCC(=O)N[C@@H](CCC(=O)N[C@@H](CCC(=O)NCCCC[C@H](NC(=O)[C@H](CC(=O)O)NC(=O)[C@H](CO)NC(=O)[C@@H](NC(=O)[C@H](Cc1ccccc1)NC(=O)[C@@H](NC(=O)CNC(=O)[C@H](CCC(N)=O)NC(=O)[C@@H](CO)NC(=O)[C@@H](N)Cc1cnc[nH]1)[C@@H](C)O)[C@@H](C)O)C(=O)N[C@@H](CO)C(=O)N[C@@H](CCCCN)C(=O)N[C@@H](Cc1ccc(O)cc1)C(=O)N[C@@H](CC(C)C)C(=O)N[C@@H](CC(=O)O)C(=O)N[C@@H](CCC(=O)O)C(=O)N[C@@H](CCCNC(=N)N)C(=O)N[C@@H](C)C(=O)N[C@@H](C)C(=O)N[C@@H](CCC(N)=O)C(=O)N[C@@H](CC(=O)O)C(=O)N[C@@H](Cc1ccccc1)C(=O)N[C@H](C(=O)N[C@@H](CCC(N)=O)C(=O)N[C@@H](Cc1c[nH]c2ccccc12)C(=O)N[C@@H](CC(C)C)C(=O)N[C@@H](CC(C)C)C(=O)N[C@@H](CC(=O)O)C(=O)N[C@H](C(N)=O)[C@@H](C)O)C(C)C)C(=O)O)C(=O)O`, the Ratio EC50 in experiment [1] stood at 0.5; in experiment [3], 1.3. The EC50 is 0.017 nM in experiment [2], 0.013 nM in experiment [6], 0.008 nM in experiment [4] and 0.015 nM in experiment [5].

On to `CCCCCCCCCCCCCCCC(=O)N[C@@H](CCC(=O)N[C@@H](CCC(=O)NCCCC[C@H](NC(=O)[C@H](CC(=O)O)NC(=O)[C@H](CO)NC(=O)[C@@H](NC(=O)[C@H](Cc1ccccc1)NC(=O)[C@@H](NC(=O)CNC(=O)[C@H](CCC(N)=O)NC(=O)C(C)(C)NC(=O)[C@@H](N)Cc1cnc[nH]1)[C@@H](C)O)[C@@H](C)O)C(=O)N[C@@H](CO)C(=O)N[C@@H](CCCCN)C(=O)N[C@@H](Cc1ccc(O)cc1)C(=O)N[C@@H](CC(C)C)C(=O)N[C@@H](CC(=O)O)C(=O)NC(C)(C)C(=O)N[C@@H](CCCNC(=N)N)C(=O)N[C@@H](CCCNC(=N)N)C(=O)N[C@@H](C)C(=O)N[C@@H](CCC(N)=O)C(=O)N[C@@H](CC(=O)O)C(=O)N[C@@H](Cc1ccccc1)C(=O)N[C@H](C(=O)N[C@@H](CCC(N)=O)C(=O)N[C@@H](Cc1c[nH]c2ccccc12)C(=O)N[C@@H](CC(C)C)C(=O)N[C@@H](CCSC)C(=O)N[C@@H](CC(N)=O)C(=O)N[C@H](C(N)=O)[C@@H](C)O)C(C)C)C(=O)O)C(=O)O`, for which the EC50 stood at 0.035 nM in experiment [2] and 0.02 nM in experiment [6]. Moreover, the Ratio EC50 in experiment [3] is 1.8.

On to `CCCCCCCCCCCCCCCC(=O)N[C@@H](CCC(=O)N[C@@H](CCC(=O)NCCCC[C@H](NC(=O)[C@H](CC(=O)O)NC(=O)[C@H](CO)NC(=O)[C@@H](NC(=O)[C@H](Cc1ccccc1)NC(=O)[C@@H](NC(=O)CNC(=O)[C@H](CCC(N)=O)NC(=O)C(C)(C)NC(=O)[C@@H](N)Cc1cnc[nH]1)[C@@H](C)O)[C@@H](C)O)C(=O)N[C@@H](CO)C(=O)N[C@@H](CCCCN)C(=O)N[C@@H](Cc1ccc(O)cc1)C(=O)N[C@@H](CC(C)C)C(=O)N[C@@H](CC(=O)O)C(=O)NC(C)(C)C(=O)N[C@@H](CCCNC(=N)N)C(=O)N[C@@H](C)C(=O)N[C@@H](C)C(=O)N[C@@H](CCC(N)=O)C(=O)N[C@@H](CC(=O)O)C(=O)N[C@@H](Cc1ccccc1)C(=O)N[C@H](C(=O)N[C@@H](CCC(N)=O)C(=O)N[C@@H](Cc1c[nH]c2ccccc12)C(=O)N[C@@H](CC(C)C)C(=O)N[C@@H](CC(C)C)C(=O)N[C@@H](CC(=O)O)C(=O)N[C@H](C(N)=O)[C@@H](C)O)C(C)C)C(=O)O)C(=O)O`, for which the Ratio EC50 is 2.6 in experiment [1] and 1.1 in experiment [3]. Further, the EC50 in experiment [2] turned out to be 0.039 nM; in experiment [6], 0.034 nM; in experiment [4], 0.022 nM; in experiment [5], 0.009 nM.

For `CCCCCCCCCCCCCCCC(=O)N[C@@H](CCC(=O)N[C@@H](CCC(=O)NCCCC[C@H](NC(=O)[C@H](CC(=O)O)NC(=O)[C@H](CO)NC(=O)[C@@H](NC(=O)[C@H](Cc1ccccc1)NC(=O)[C@@H](NC(=O)CNC(=O)[C@H](CCC(N)=O)NC(=O)C(C)(C)NC(=O)[C@@H](N)Cc1cnc[nH]1)[C@@H](C)O)[C@@H](C)O)C(=O)N[C@@H](CO)C(=O)N[C@@H](CCCCN)C(=O)N[C@@H](Cc1ccc(O)cc1)C(=O)N[C@@H](CC(C)C)C(=O)N[C@@H](CC(=O)O)C(=O)NC(C)(C)C(=O)N[C@@H](CCCNC(=N)N)C(=O)N[C@@H](CCCNC(=N)N)C(=O)N[C@@H](C)C(=O)N[C@@H](CCC(N)=O)C(=O)N[C@@H](CC(=O)O)C(=O)N[C@@H](Cc1ccccc1)C(=O)N[C@H](C(=O)N[C@@H](CCC(N)=O)C(=O)N[C@@H](Cc1c[nH]c2ccccc12)C(=O)N[C@@H](CC(C)C)C(=O)N[C@@H](CC(C)C)C(=O)N[C@@H](CC(N)=O)C(=O)N[C@H](C(=O)N[C@@H](CCCCNC(=O)CC[C@H](N)C(=O)O)C(N)=O)[C@@H](C)O)C(C)C)C(=O)O)C(=O)O`, the EC50 in experiment [2] was 0.006 nM; in experiment [6], 0.005 nM. Moreover, in experiment [3], the Ratio EC50 was determined as 1.2.

Take `CCCCCCCCCCCCCCCC(=O)N[C@@H](CCC(=O)N[C@@H](CCC(=O)NCCCC[C@H](NC(=O)[C@H](CC(=O)O)NC(=O)[C@H](CO)NC(=O)[C@@H](NC(=O)[C@H](Cc1ccccc1)NC(=O)[C@@H](NC(=O)CNC(=O)[C@H](CCC(N)=O)NC(=O)C(C)(C)NC(=O)[C@@H](N)Cc1cnc[nH]1)[C@@H](C)O)[C@@H](C)O)C(=O)N[C@@H](CO)C(=O)N[C@@H](CCCCN)C(=O)N[C@@H](Cc1ccc(O)cc1)C(=O)N[C@@H](CC(C)C)C(=O)N[C@@H](CC(=O)O)C(=O)NC(C)(C)C(=O)N[C@@H](CCCNC(=N)N)C(=O)N[C@@H](C)C(=O)N[C@@H](C)C(=O)N[C@@H](CCC(N)=O)C(=O)N[C@@H](CC(=O)O)C(=O)N[C@@H](Cc1ccccc1)C(=O)N[C@H](C(=O)N[C@@H](CCC(N)=O)C(=O)N[C@@H](Cc1c[nH]c2ccccc12)C(=O)N[C@@H](CC(C)C)C(=O)N[C@@H](CC(C)C)C(=O)N[C@@H](CC(N)=O)C(=O)N[C@H](C(=O)N[C@@H](CCCCNC(=O)CC[C@H](N)C(=O)O)C(N)=O)[C@@H](C)O)C(C)C)C(=O)O)C(=O)O`: the figures for the Ratio EC50 in experiment [1] and in experiment [3] were 2.4 and 2, respectively. Further, the concentration for a half-maximal effect (EC50) stood at 0.058 nM in experiment [2], 0.029 nM in experiment [6], 0.334 nM in experiment [4] and 0.14 nM in experiment [5].

`CCCCCCCCCCCCCCCC(=O)N[C@@H](CCC(=O)N[C@@H](CCC(=O)NCCCC[C@H](NC(=O)[C@H](CC(=O)O)NC(=O)[C@H](CO)NC(=O)[C@@H](NC(=O)[C@H](Cc1ccccc1)NC(=O)[C@@H](NC(=O)CNC(=O)[C@H](CCC(N)=O)NC(=O)[C@@H](CO)NC(=O)[C@@H](N)Cc1cnc[nH]1)[C@@H](C)O)[C@@H](C)O)C(=O)N[C@@H](CO)C(=O)N[C@@H](CCCCN)C(=O)N[C@@H](Cc1ccc(O)cc1)C(=O)N[C@@H](CC(C)C)C(=O)N[C@@H](CC(=O)O)C(=O)NC(C)(C)C(=O)N[C@@H](CCCNC(=N)N)C(=O)N[C@@H](C)C(=O)N[C@@H](C)C(=O)N[C@@H](CCC(N)=O)C(=O)N[C@@H](CC(=O)O)C(=O)N[C@@H](Cc1ccccc1)C(=O)N[C@H](C(=O)N[C@@H](CCC(N)=O)C(=O)N[C@@H](Cc1c[nH]c2ccccc12)C(=O)N[C@@H](CC(C)C)C(=O)N[C@@H](CC(C)C)C(=O)N[C@@H](CC(=O)O)C(=O)N[C@H](C(N)=O)[C@@H](C)O)C(C)C)C(=O)O)C(=O)O`: the Ratio EC50 in experiment [1] came to 0.5; in experiment [3] it was 1. Moreover, the EC50 was determined as 0.073 nM in experiment [2], 0.074 nM in experiment [6], 0.01 nM in experiment [4] and 0.019 nM in experiment [5].

For `CCCCCCCCCCCCCCCC(=O)N[C@@H](CCC(=O)N[C@@H](CCC(=O)NCCCC[C@H](NC(=O)[C@H](CC(=O)O)NC(=O)[C@H](CO)NC(=O)[C@@H](NC(=O)[C@H](Cc1ccccc1)NC(=O)[C@@H](NC(=O)CNC(=O)[C@H](CCC(N)=O)NC(=O)C(C)(C)NC(=O)[C@@H](N)Cc1cnc[nH]1)[C@@H](C)O)[C@@H](C)O)C(=O)N[C@@H](CO)C(=O)N[C@@H](CCCCN)C(=O)N[C@@H](Cc1ccc(O)cc1)C(=O)N[C@@H](CC(C)C)C(=O)N[C@@H](CC(=O)O)C(=O)NC(C)(C)C(=O)N[C@@H](CCCNC(=N)N)C(=O)N[C@@H](CCCNC(=N)N)C(=O)N[C@@H](C)C(=O)N[C@@H](CCC(N)=O)C(=O)N[C@@H](CC(=O)O)C(=O)N[C@@H](Cc1ccccc1)C(=O)N[C@H](C(=O)N[C@@H](CCC(N)=O)C(=O)N[C@@H](Cc1c[nH]c2ccccc12)C(=O)N[C@@H](CC(C)C)C(=O)N[C@@H](CCSC)C(=O)N[C@@H](CC(N)=O)C(=O)N[C@H](C(=O)N[C@@H](CCCCNC(=O)CC[C@H](N)C(=O)O)C(N)=O)[C@@H](C)O)C(C)C)C(=O)O)C(=O)O`, the EC50 in experiment [2] came to 0.06 nM; in experiment [6], 0.04 nM. The Ratio EC50 in experiment [3] came out at 1.5.
